The values below come from PubChem BioAssay AID1996.

≈ marks a conversion by molar mass, not a printed value.

The conditions of this data set: buffer; pH 7.4; 200.0 µM.
`O=C(CN1C(=O)COc2ccc(Cl)cc21)NC1CC1` had a kinetic solubility of over 42.1 µg/mL.
As for `Nc1ccc(NC(=O)NC2CCCCC2)cc1[N+](=O)[O-]`, the figure is 1.6 µg/mL (≈ 5.75 µM); as for `O=C(CN1CCC(NC(=O)C2CC2)CC1)Nc1ccccc1[N+](=O)[O-]`, 46.6 µg/mL (≈ 135 µM).
Next, `CCOc1ncccc1C(=O)OCC(=O)c1ccc(C)c(C)c1`: 17 µg/mL (≈ 54.3 µM); `COc1ccc(C(=O)Nc2ccc(Nc3ccccc3)cc2)cc1Br`: under 0.4 µg/mL.
Next, `O=C(CCCOc1ccc(Cl)cc1)NC1CCCCC1`: 1.9 µg/mL (≈ 6.42 µM).
As to `CCCN(CCC)S(=O)(=O)c1cc2c3c(c1)CCN3C(=O)CC2`, the kinetic solubility is over 50.5 µg/mL.
Next, `O=C(CSc1nnc(Nc2ccccc2F)s1)NC1CCS(=O)(=O)C1` (configuration not stated): over 60.4 µg/mL; `COc1ccc(CCN=C(N)Nc2nc(C)cc(C)n2)cc1`: 36.5 µg/mL (≈ 122 µM); `CC1CC(C)CN(C(=O)Cn2cc(C=O)c3ccccc32)C1` (configuration not stated): over 44.8 µg/mL.
In turn, `CCS(=O)(=O)Nc1ccc2[nH]c(=O)[nH]c2c1` had a kinetic solubility of over 36.2 µg/mL.
With `ClCC1CN(Cc2ccccc2Cl)CCO1` (configuration not stated), the solubility (kinetic) is 17.3 µg/mL (≈ 66.5 µM).
As for `Cc1cccc(OCCCCCN2CCOCC2)c1`, the figure is 29.9 µg/mL (≈ 114 µM).
The compound `Cc1cnc(C(=O)OCC(=O)NC(C)c2ccccc2)cn1` (configuration not stated) had a solubility (kinetic) of over 44.9 µg/mL.
The compound `CCC(=O)Nc1nc(-c2ccccc2)nc(SC)c1C(C)=O` returned a kinetic solubility of 0.4 µg/mL (≈ 1.27 µM).
As for `O=C(CSCc1ccc(C(=O)O)cc1)Nc1ccc2ccccc2c1`, the figure is over 52.7 µg/mL; as for `CC1CN(C(=O)COC(=O)[C@@H](NC(=O)c2ccccc2Cl)C(C)C)CC(C)O1` (some centres not stated), 58.5 µg/mL (≈ 142 µM).
As for `O=C(Nc1cccc(-c2cnc3ccccc3n2)c1)c1ccncc1`, the figure is 0.6 µg/mL (≈ 1.84 µM); as for `COC(=O)Nc1ccc(S(=O)(=O)N2CCCC(C(=O)O)C2)cc1` (configuration not stated), 50.4 µg/mL (≈ 147 µM); as for `O=C(Nc1ccc2c(c1)OCCO2)c1cccc(Br)c1`, 3.2 µg/mL (≈ 9.58 µM).
Next, `Cn1nccc1C(=O)N1CCN(c2ccccc2F)CC1`: over 43.2 µg/mL; `Cc1nnc(SCC(=O)NC2CC2)n1CC1CCCO1` (configuration not stated): over 44.5 µg/mL; `Cc1c(C)n(CC(O)CN(CCO)CCO)c2ccccc12.Cl` (configuration not stated): over 51.4 µg/mL.
Compound `COc1ccc(CNC(=O)COC(=O)c2ccc(S(=O)(=O)N3CCCCC3)cc2)cc1` came in with a kinetic solubility of 2.1 µg/mL (≈ 4.7 µM).
As for `COCCNC(=S)N1CCC(NC(=O)c2ccco2)CC1`, the figure is over 46.7 µg/mL.
Compound `Cc1onc(-c2c(Cl)cccc2Cl)c1/C(N)=N/OC(=O)N(C)C` registered a kinetic solubility of over 53.6 µg/mL.
As for `CC(=O)c1sc(NC(=O)c2ccc(Cl)cc2)nc1C`, the figure is 0.5 µg/mL (≈ 1.7 µM).
Compound `Cc1cc(NC(=O)C2CC(=O)N(c3ccccc3Cl)C2)no1` (configuration not stated) had a solubility (kinetic) of over 48 µg/mL.
Next, `COC1=C(N2CCOCC2)C(=O)c2ccccc2C1=O`: over 41 µg/mL; `Cc1cccc(NC(=S)N2CCCCCC2)c1C`: over 39.4 µg/mL.
As for `Brc1ccc(OCCN2CCOCC2)cc1`, the figure is 29 µg/mL (≈ 101 µM).
As for `Nc1nnc(SCC(=O)OCC(=O)NC2CCCCC2)s1`, the figure is over 49.6 µg/mL; as for `CC(C)c1ccccc1NC(=S)NC(=O)C1CCCCC1`, 0.9 µg/mL (≈ 2.96 µM).
With `CC(C)Sc1nc2c(c(=O)[nH]c(=O)n2C)n1Cc1ccccc1`, the kinetic solubility was found to be 2.8 µg/mL (≈ 8.47 µM).
As for `O=C(COC(=O)c1ccc([N+](=O)[O-])o1)NC12CC3CC(CC(C3)C1)C2`, the figure is over 52.3 µg/mL.
As for `CCOC(=O)c1cc(C#N)c(SC)nc1C`, the solubility (kinetic) stood at 0.9 µg/mL (≈ 3.81 µM).
With `Cc1cccc(N=C2NC(=O)/C(=C/c3cccnc3)S2)c1`, the kinetic solubility stood at 2.7 µg/mL (≈ 9.14 µM).
As for `O=S(=O)(c1ccccc1)c1nc(-c2ccccc2Cl)oc1NCCCN1CCOCC1`, the figure is 3.6 µg/mL (≈ 7.79 µM); as for `CC1(C)OC(=O)C(=NNc2ccc(C(=O)O)cc2)C(=O)O1`, over 43.8 µg/mL; as for `CCc1ccccc1S(=O)(=O)c1c(C)cc(C)nc1Cl`, 24.3 µg/mL (≈ 78.4 µM).
Take `O=C1NCCN/C1=C\C(=O)c1ccc(F)cc1`: the solubility (kinetic) was 32.5 µg/mL (≈ 139 µM).
Turning to `CCOc1ccc(N/C=C/C(=O)c2ccc(OC)cc2)cc1`, the kinetic solubility was under 0.6 µg/mL.
As for `CCCNC(=O)Cc1c(C)oc2ccccc12`, the figure is over 34.7 µg/mL.
On to `O=Cc1c(N2CCSCC2)nc2ccccn2c1=O`, for which the solubility (kinetic) is over 41.3 µg/mL.
As for `COc1cccc(N2C(=O)/C(=C\c3cccs3)NC2=S)c1`, the figure is 4.1 µg/mL (≈ 13 µM); as for `CC1CCCN(S(=O)(=O)c2ccc3oc(=O)ccc3c2)C1` (configuration not stated), 20 µg/mL (≈ 65.1 µM); as for `COc1ccccc1Nc1nc(-c2sc(N)nc2C)cs1`, 19.2 µg/mL (≈ 60.3 µM).
Next, `Fc1ccc(NC2=NCCCCC2)cc1`: over 30.9 µg/mL; `Cc1c(C=N)c(O)n(C)c(=O)c1C#N`: over 28.7 µg/mL.
Consider `N#Cc1ccsc1NC(=O)CN1CCOCC1`, for which the solubility (kinetic) was determined as 28.6 µg/mL (≈ 114 µM).
Next, `CC1CCN(C(=O)CC(NC(N)=O)c2ccccc2Cl)CC1` (configuration not stated): 44.2 µg/mL (≈ 136 µM).
As for `NCc1oc(-c2ccccc2)cc1C(=O)O`, the figure is 22.2 µg/mL (≈ 102 µM).

Broadly, the solubility (kinetic) is solubility judged after dilution from a stock solution rather than from solid.
